B1: ibj1c.pk0002.f9 (protein)
chain: MKFLYGIILIALFLTVMIATHSEARCPNCFTTNPNAEADCKKCCGNRWGKCAGYQCVCPMK

System: Heliothis virescens larvae
Assay: Feeding bioassay of recombinant baculoviruses expressing the scorpion peptides on Heliothis virescens larvae
Assay type: in vivo
Settings: four 5-day-old larvae fed 200 mg viral-contaminated diet; symptoms examined 4, 5, 6 and 7 days after fresh diet added
Source text: It has been shown that single amino acids residues are important for receptor binding and for biological activity of K-channel toxins (Sabatier et al. (1994) Int. J. Peptide Protein Res. 43:486-495). The cDNAs described herein were cloned into baculoviruses and used to test their activity against Lepidopteran.
The DNA encoding the peptides was amplified by performing PCR and adding a Bgl II restriction site at the 5′ end and an Eco RI site at the 3′ end to allow cloning into the baculovirus transfer vector pAcUW21 (BD Biosciences-PharMingen, San Diego, Calif.). After amplification in E. coli the presence of the appropriate fragments was confirmed by restriction enzyme analysis. Colonies containing the appropriate fragments were isolated, propagated, and plasmid DNA was prepared for lipofectin-mediated co-transfection into insect cells with linearized polyhedrin-negative AcNPV. Co-transfections were performed essentially as described in Example 7. Polyhedrin-positive recombinant viruses were isolated employing standard plaque purification protocols and were mixed with a plug of HV diet (www.Bio-Serv.com) and fed to Heliothis virescens larvae.
Depicted in Table 3 are the results from two independent experiments in which four 5-day-old larvae were fed 200 mg of viral-contaminated diet. The larvae were allowed to eat for 2 days or until the viral-contaminated diet was consumed, then fresh 1 g diet plugs were added to allow continued feeding.

| Molecule | Activity of Scorpion Potassium Channel Modifiers on Heliothis virescens Larvae, Experiment 1 | Activity of Scorpion Potassium Channel Modifiers on Heliothis virescens Larvae, Experiment 2 |
| --- | --- | --- |
| ibj1c.pk005.e21: Buthotus judaicus scorpion leiuropeptide III homolog; mature toxin amino acids 31-59 of SEQ ID NO:10, expressed from recombinant baculovirus (VGCEDCPEHCSQQNARAKCENDKCVCEPK) | Slightly Active | Active (scored as active if the larvae became irritated and had contractions and died) |
| ibj1c.pk005.n9: Buthotus judaicus scorpion potassium channel blocking toxin 15-1 homolog; mature toxin amino acids 23-58 of SEQ ID NO:18, expressed from recombinant baculovirus (DLIDVKCISSQECWIACKKVTGRFQGKCQNKQCRCY) | Slightly Active | Slightly Active |
| ibj1c.pk006.h8: Buthotus judaicus scorpion potassium channel blocking toxin 15-1 homolog; mature toxin amino acids 23-58 of SEQ ID NO:16, expressed from recombinant baculovirus (GLIDVRCSASRECWEACRKVTGSGQGKCQNNQCRCY) | Slightly Active | Active (scored as active if the larvae became irritated and had contractions and died) |
| ibj1c.pk006.i20: Buthotus judaicus scorpion kaliotoxin 2 precursor homolog; mature toxin amino acids 23-61 of SEQ ID NO:4, expressed from recombinant baculovirus (QYELDVTCMGGADNCVKPCYDKYGTTKTKCINDRCNCYP) | Slightly Active | Slightly Active |
| ibj1c.pk007.c13: Buthotus judaicus scorpion leiurotoxin I homolog; mature toxin amino acids 38-70 of SEQ ID NO:12, expressed from recombinant baculovirus (AFCNLRRCQLICRESGLLGKCIGDRCECVPHGK) | Slightly Active | Slightly Active |
| ibj1c.pk007.k8: Buthotus judaicus scorpion cobatoxin 1 homolog; mature toxin amino acids 22-58 of SEQ ID NO:2, expressed from recombinant baculovirus (NFKVEAAQCYSSDCRVKCAAMGFNSGKCINSKCKCYK) | Slightly Active | Slightly Active |
| ibj1c.pk008.d3: Buthotus judaicus scorpion leiuropeptide I homolog; mature toxin amino acids 29-56 of SEQ ID NO:8, expressed from recombinant baculovirus (VDCEECPFHCAGKNAIPTCDDGECNCNV) | Slightly Active | Slightly Active |
| ibj1c.pk009.i6: Buthotus judaicus scorpion kaliotoxin 2 precursor homolog; mature toxin amino acids 23-59 of SEQ ID NO:6, expressed from recombinant baculovirus (QVETNVKCTGGSCASTCKRVIGVAAGKCINGRCVCYP) | Slightly Active | Slightly Active |
| B1 | Slightly Active | Slightly Active |

System: Ca+2-activated K-channels and voltage-dependent K-channel (K(v) 1.3)
Assay: not given
Settings: Maxi-K, medium- and small-conductance Ca+2-activated K-channels and K(v) 1.3; cited from earlier work

| Molecule | Potency of channel inhibition |
| --- | --- |
| charybdotoxin [ChTX] | in the low nanomolar range |

— patent publication US6740743B2, “Scorpian toxins” (E. I. du Pont de Nemours and Company, priority 1999, dated 2004)
